Data as given in patent US11331335B2, “Sepsis treatment and related compositions methods and systems” (CALIFORNIA INSTITUTE OF TECHNOLOGY, priority 2015, dated 2022).

Legend:
[1] = system: endotoxin (lipopolysaccharide; LPS) induced sepsis, Balb/c animals; test: Endotoxic shock model (high dose LPS), PSA given orally or intravenously before induction; format: in vivo, mouse
Method: In this model, animals are treated intravenously with high doses of endotoxin (lipopolysaccharide; LPS). Administration of LPS leads to the production of massive amounts of inflammatory cytokines such as tumor necrosis factor α (TNF-α) and IL-6 and animals rapidly succumb to death. This model closely resembles the cytokine storm seen in patients suffering from septic shock.
(§1) Five days post-induction CD4+ T cells were isolated from the spleens of the indicated animals. Equal amounts of RNA were used to perform q-RT-PCR on IL6 or TNFa cytokines at 1 and 4 hours post-LPS. (FIG. 1 panel A diagram on the left, and FIG. 1 panel B diagram on the left)
as §1, with “In another set of experiments, Balb/c animals were treated intravenously with PSA 24 hours prior to be induced with TNBS colitis. Five” for “Five”, “right,” for “left,”, “right)” for “left)”
Detection of percent survival of in animals treated intravenously with high doses of endotoxin (lipopolysaccharide; LPS) was performed. Accordingly, Balb/C animals were orally or intravenously treated with PSA or PBS as described in Example 2 and the number of surviving mice counted.

marginal zone B cells = test: Transfer of MZ B cells from PSA treated donors into RAG-/- recipients, then LPS induced sepsis; format: in vivo, mouse
Method: To further validate this conclusion, experiments were performed to determine whether the function of PSA on MZ B cells could be transplanted into mice that have never been treated with PSA. WT animals were treated i.v. with two doses of PSA and splenic MZ B cells were isolated and subsequently transferred into a RAG^−/− recipients. LPS induced sepsis was then induced in the MZ B cell recipients without any treatment with PSA.
In particular a second set of experiments, WT C57Bl/6 animals were treated i.v. with either PBS or PSA (100 ug) every other day for a total of three days (FIG. 4 Panels C and D). MZ B cells were subsequently sort purified as in the first set of experiments and 8×10^5 MZ B cells were transferred into RAG^−/− recipients. Twenty-four hours later animals received high dose LPS (500 ug). Serum was collected at indicated time points to analyze TNF-α (FIG. 4 Panel E) and survival monitored (FIG. 4 Panel F). * p<0.05 **p<0.005 by a student's t test for all ELISA data and *p<0.05 **p<0.005 using a logrank and Gehan-Wilcoxon test for survival data.
Marginal zone B cells secrete copious amounts of polyreactive IgM. […] Based on this, serum was isolated from RAG^−/− animals that received a MZ B transplant from PSA treated mice and quantitated IgM serum levels.

[2] = system: endotoxin induced sepsis, Balb/c animals; test: Endotoxin induced sepsis, PSA administered i.v. after LPS; format: in vivo, mouse
Method: To mimic a clinically significant treatment situation, PSA was administered after inducing endotoxin induced sepsis. Balb/c animals were treated with high doses of LPS (500 ug) i.p. and subsequently treated i.v. with PBS, PSA or PSA was administered 30 minutes post-LPS (see FIG. 2).
Since this is an acute model, where overt inflammation occurs within one hour after induction two timepoints for PSA treatment were tested. In particular, serum was collected 1 and 4 hours post-LPS injection and cytokines TNF-α (FIG. 2 Panel A) and IL-6 (FIG. 2 Panel B) were detected by ELISA.
Each experiment consisted of at least 4 animals in each groups and was repeated twice. * p<0.05 **p<0.005 as measured by a students t test One group received i.v. administration of PSA directly after LPS injection (PSA same) while the second group received PSA thirty minutes post-LPS injection (PSA-post) (FIG. 2).

TNF-α or IL-6 production = test: Cytokine induction by PSA administered i.v. alone; conditions: data not shown
[3] = system: LPS sepsis in RAG−/− mice; test: Endotoxin induced sepsis in RAG-/- mice with or without transfer of T cells, CD4 depleted splenocytes or CD19+ B cells; format: in vivo, mouse
Method: In particular, the requirement for T and B cells during PSA mediated protection from sepsis was tested.
In a first set of experiments, RAG^−/− animals were treated i.v. with either PBS or PSA 24 hours prior to receiving high dose LPS i.p. Serum was collected from animals at 1 and 4 hours, TNF-α and IL-6 were measured by ELISA (FIG. 3 Panel A) and survival monitored (FIG. 3 Panel B). Two experiments were combined. *p<0.05 **p<0.005 using a logrank and Gehan-Wilcoxon test.
In a second set of experiments, RAG^−/− recipients received either CD4+CD3+ (square) or total T cells (CD3+) (triangle) or CD4 depleted splenocytes (includes CD8+ T cells and CD19+ B cells) (sphere). Twenty-four hours later animals were given LPS. Serum was collected 1 and 4 hours post-LPS to measure cytokines (FIG. 3 Panel C) and survival was monitored (FIG. 3 Panel D).
In a third set of experiments sort purified CD19+ total B cells were purified from the spleen of donor animals and transferred into RAG^−/− recipients and inflammatory cytokines were monitored at 1 and 4 hours (FIG. 3 Panel E) as well as survival (FIG. 3 Panel F). * p<0.05 **p<0.005 by a student's t test for all ELISA data and *p<0.05 **p<0.005 using a logrank and Gehan-Wilcoxon test for survival data. ELISA data is representative from one experiment repeated twice with an n of 4 in each group. Survival data combines multiple experiments.

[4] = system: LPS sepsis in RAG−/− recipients of sIgM−/− B cells; test: Endotoxin induced sepsis in RAG-/- recipients of B cells from sIgM-/- mice; format: in vivo, mouse
Description: To test whether IgM is the mechanism by which PSA is able to protect from endotoxin induced sepsis total B cells were isolated from the spleen of animals that are unable to make secreted IgM (sIgM^−/−) and transferred these cells into RAG^−/− recipients according to procedure of Example 7.

[5] = system: LPS sepsis in RAG−/− recipients of B1 or MZ B cells; test: Endotoxin induced sepsis in RAG-/- recipients of sort purified B1 or MZ B cells, treated with PSA; format: in vivo, mouse
Method: Multiple subsets of B cells exist within the spleen including B1, follicular, and MZ B cell populations. […] Both B1 and MZ B cells can secrete IgM in a T cell independent manner, therefore experiments were performed to determine whether either of these subsets conferred protection from sepsis by PSA. B1 cells and MZ B cells were sort purified and transferred into RAG^−/− animals. Animals were subsequently treated with PSA and induced for disease.
In particular in a first set of experiments, marginal zone B cells (CD19+B220+IgM^hiCD21^hiCD23) were sort purified and transferred into RAG^−/− recipients. Twenty-four hours later these animals were given high dose LPS and serum collected at 1 and 4 hours to assay for TNF-α (FIG. 4 Panel A) and survival was monitored (FIG. 4 Panel B).

[6] = system: endotoxin shock in IL-10−/− mice; test: Endotoxin induced sepsis in IL-10-/- mice; format: in vivo, mouse
Method: (§2) FIG. 6 Panels C and A show detection of TNF-a in TLR2^−/− or IL-10^−/− mice treated intravenously treated i.v. with PBS or PSA directly following induction of endotoxin shock by intraperitoneal administration of high doses of LPS (500 ug).
(§3) Therefore, to determine whether PSA protection from endotoxin induced sepsis also required these pathways the following experiments were performed.

[7] = system: cecal-ligation puncture (CLP) model; test: Cecal-ligation puncture (CLP) model of sepsis; format: in vivo, mouse; conditions: PSA vs PBS mock treated (about fifty percent succumbed)
Description: To validate a role for PSA during protection from sepsis, a second, well-established mouse model of sepsis called the cecal-ligation puncture (CLP) model was used. CLP induces colonic spillage of bacteria into the peritoneal cavity, which then enter the bloodstream. Although there are limitations, this model is thought to best mimic a primary cause of human sepsis (polymicrobial infection from the gut).

TNBS colitis = test: TNBS colitis, systemic (spleen) inflammation after PSA; format: in vivo, mouse
Method: Three models of intestinal inflammation were used: 1) CD4^+CD45Rb^high T cells were purified from the spleens of wild-type or IL-10^−/− donor mice by flow cytometry and transferred into Rag (C57Bl/6) recipients as described. 2) TNBS colitis was induced by pre-sensitization of wild-type (C57Bl/6) mice on the skin with a TNBS/acetone mix. Seven days after sensitization, 2.5% TNBS in ethanol was administered rectally; mice were sacrificed 3-6 days later.
Cytokines from the spleen, colons, or mesenteric lymphonodes (MLNs) were assayed by ELISA, Q-PCR, or flow cytometry. Colitis was assessed with tissue sections (fixed, paraffin embedded, sectioned onto a slide, and stained with hematoxylin and eosin) and was scored by a blinded pathologist (Dr. R. T. Bronson, Harvard Medical School) according to a standard scoring system: 0, no thickening of colonic tissues and no inflammation (infiltration of lymphocytes); 1, mild thickening of tissues but no inflammation; 2, mild thickening of tissues and mild inflammation; 3, severe thickening and severe inflammation. BMDCs were purified from femurs of mice after extraction and washing in PBS. Cells were cultured for 8 days in C-RPMI-10 in the presence of GM-CSF (20 ng/mL; Biosource, Camarillo, Calif.). CD4^+ T cells were purified by negative selection over a magnetic column (Miltenyi or R& D Systems).
The backs of wild-type (C57BL/6) male mice were shaved, and pre-sensitization solution (150 μL; acetone with olive oil in a 4:1 ratio mixed with 5% TNBS in a 4:1 ratio) was slowly applied. […] Mice were analyzed 4-6 days after TNBS administration.
Animals were orally gavaged with vehicle or PSA twenty-four hours prior to being induced with colitis. Five days post-induction CD4+ T cells were isolated from the spleens of indicated animals and analyzed for the inflammatory cytokines TNF-α, IL-17a and IL-6 to determine how systemic inflammation is influenced during intestinal disease.

[8] = system: endotoxin shock in TLR2−/− mice; test: Endotoxin induced sepsis in TLR2-/- mice; format: in vivo, mouse
Method: as §2, §3

[9] = PSA i.v. thirty minutes post-LPS (PSA post)
[10] = RAG−/− mice reconstituted with CD19+ total B cells, i.v. PSA vs PBS
[11] = PSA i.v. following LPS 500 ug i.p.

In the case of polysaccharide A [PSA], the “serum inflammatory cytokines (TNF-α, IL-6)” value ([1]; PSA provided directly within the blood (intravenous), 1 and 4 hours post-LPS, vs mock treated) is reported as “significantly blocked induction of serum inflammatory cytokines”, the “serum TNF-α” value ([1]; animals fed PSA (oral gavage), vs mock treated) is reported as “slightly elevated” and the survival ([1]; intravenous administration of PSA) is reported as “potently protected animals from death”. The “protection from endotoxin induced sepsis (serum TNF-α, mortality)” value (marginal zone B cells; RAG−/− recipients of 8×10^5 MZ B cells from donors treated i.v. with PSA (100 ug), recipients not treated with PSA, LPS 500 ug) was “completely protected from endotoxin induced sepsis”, the “IgM serum levels during LPS induced sepsis” value (marginal zone B cells; RAG−/− recipients of MZ B cells from PSA treated animals vs from mock treated mice) was “high levels of circulating IgM” and the “serum TNF-α and IL-6 levels” value ([2]; PSA i.v. directly following LPS 500 ug i.p. (PSA same), 1 and 4 hours post-LPS) was “reduced levels”. For the same substance, the survival ([2]; PSA i.v. directly following LPS (PSA same)) was “high survival rate”, the “serum TNF-α” value [2, 9] was “lower serum levels” and the survival [2, 9] was “higher survival rate”. For the same substance, the “overt inflammation on i.v. administration” value (TNF-α or IL-6 production; PSA i.v. into animals) was “does not elicit overt inflammation”, the “TNF-α or IL-6 production induced by PSA on its own” value (TNF-α or IL-6 production; PSA i.v., no LPS) was “does not on its own induce” and the “protection from sepsis (serum TNF-α, survival)” value ([3]; RAG−/− animals (no T and B cells), PSA i.v. 24 hours prior to high dose LPS i.p.) was “no longer protected animals from sepsis”. For the same substance, the “serum levels of TNFα” value [3, 10] was “significantly reduced”, the survival [3, 10] was “survived” and the “PSA mediated protection from death” value ([3]; RAG−/− recipients of CD3+ total T cells) was “unable to restore PSA mediated protection from death”. The “prevention of death and suppression of systemic inflammation” value ([3]; RAG−/− recipients of CD4+ T cell depleted splenocytes) was “restored the ability of PSA to prevent death and suppress systemic inflammation”, the “PSA mediated protection from death” value ([3]; RAG−/− recipients of CD4+ sort purified T cells) was “unable to restore PSA mediated protection from death” and the “protection from sepsis (serum inflammatory cytokines, death)” value ([4]; PSA i.v. treated animals vs PBS treated) was “protected”. For the same substance, the “protection from sepsis (serum inflammatory cytokines, death)” value ([4]; RAG−/− animals that received MZ B cells from sIgM−/− mice, PSA i.v.) was “no longer protected by administration of PSA”, the PSA mediated protection ([5]; RAG−/− recipients of B1b cells, data not shown) was “did not restore PSA mediated protection” and the survival ([5]; RAG−/− recipients of purified MZ B cells, PSA treated) was “protect animals from sepsis induced death”. For the same substance, the “serum levels of TNF-α” value ([5]; RAG−/− recipients of purified MZ B cells, PSA treated, 1 and 4 hours after high dose LPS) was “suppression of serum levels of TNF-α”, the “TNFα and IL-6 levels during septic shock” value ([6]; PSA i.v.) was “suppressed” and the survival [6, 11] was “completely protected from death”. For the same substance, the survival [7] was “significantly increased survival rate”, the “inflammatory cytokine expression (TNF-α, IL-17a, IL-6) in splenic CD4+ T cells” value (TNBS colitis; PSA orally gavaged 24 h prior to colitis induction, five days post-induction, vs colitogenic animals) was “reduced cytokine expression” and the “whether PSA influences inflammation within the systemic compartment (colon disease score, survival; FIG. 5 C, D)” value (TNBS colitis; intravenous PSA 24 h prior to TNBS colitis) was “supported this conclusion”. For the same substance, the “splenomegaly in colitic animals” value (TNBS colitis; orally gavaged PSA) was “able to prevent”, the “TNFα and IL-6 levels during septic shock” value ([8]; PSA i.v.) was “suppressed” and the survival [8, 11] was “completely protected from death”.
